These results are taken from doi:10.1101/2024.08.19.608619, “Discovery of potent SARS-CoV-2 nsp3 macrodomain inhibitors uncovers lack of translation to cellular antiviral response” (bioRxiv, 2024).

In brackets after ≈: the same amount, converted by molar mass. Several values for one entry are separate records, joined by “and”; a condition that tells them apart may be missing. Equal entries are not always repeated. Where two headings read alike, the source gives them in different places.

Data set [1] is described as follows: Hepatic microsomal stability, HLM. As to conditions: In vitro human liver microsomal stability; for perc_remaining_no_cofactor: no cofactor. It is filed as in vitro ADME, human. A general note: Liver microsomes are a subcellular fraction often used to study metabolism.
The target in another data set is T1, DRAK1(h) (Homo sapiens, UniProt Q9UEE5).
T1 construct: gene STK17A
T1 sequence (Q9UEE5 1-414): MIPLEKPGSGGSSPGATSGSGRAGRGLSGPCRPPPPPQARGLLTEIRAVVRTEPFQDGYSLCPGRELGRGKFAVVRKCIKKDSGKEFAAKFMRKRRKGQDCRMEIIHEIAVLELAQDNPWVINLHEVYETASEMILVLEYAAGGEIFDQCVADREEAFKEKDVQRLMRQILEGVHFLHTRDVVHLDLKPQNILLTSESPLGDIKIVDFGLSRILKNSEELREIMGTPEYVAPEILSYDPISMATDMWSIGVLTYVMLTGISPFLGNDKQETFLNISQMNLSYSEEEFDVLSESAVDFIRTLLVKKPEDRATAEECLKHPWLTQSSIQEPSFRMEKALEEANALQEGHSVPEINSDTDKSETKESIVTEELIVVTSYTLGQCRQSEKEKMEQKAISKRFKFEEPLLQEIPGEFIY
Nature of the data set: biochemical. Details: In vitro kinase panel profiling, per cent remaining kinase activity at 10 uM. The conditions noted are these: atp_concentration=10, read-out: % of control remaining. The text has this:
(§1) We derisk potential for off-target activity by profiling the compound in a CEREP panel, a standard secondary pharmacology assessment, as well as a kinase panel to derisk a potential hinge-binding motif in our leads, and a PARP panel to derisk activity against human […]. Reassuringly, the compounds are selective, with the only off-targets being moderate human CHRM2 and KOR receptors activity associated with ASAP-0011198.

A further data set addresses Fyn(h) (Homo sapiens, UniProt P06241). Nature of the data set: biochemical. Further details: In vitro kinase panel profiling, per cent remaining kinase activity at 10 uM. The conditions noted are these: atp_concentration=70, read-out: % of control remaining.
From the text: as §1

Another data set has as its target T2, GSK3β(h) (Homo sapiens, UniProt P49841).
T2 construct: gene GSK3B
Nature of the data set: biochemical. Details: In vitro kinase panel profiling, per cent remaining kinase activity at 10 uM. As to conditions: atp_concentration=15, read-out: % of control remaining.
From the text: as §1

In the next data set the target is Lyn(h) (Homo sapiens, UniProt P07948). Kind of data set: biochemical. Further details: In vitro kinase panel profiling, per cent remaining kinase activity at 10 uM. The conditions noted are these: atp_concentration=70, read-out: % of control remaining.
Sequence of Lyn(h) (P07948 whole entry): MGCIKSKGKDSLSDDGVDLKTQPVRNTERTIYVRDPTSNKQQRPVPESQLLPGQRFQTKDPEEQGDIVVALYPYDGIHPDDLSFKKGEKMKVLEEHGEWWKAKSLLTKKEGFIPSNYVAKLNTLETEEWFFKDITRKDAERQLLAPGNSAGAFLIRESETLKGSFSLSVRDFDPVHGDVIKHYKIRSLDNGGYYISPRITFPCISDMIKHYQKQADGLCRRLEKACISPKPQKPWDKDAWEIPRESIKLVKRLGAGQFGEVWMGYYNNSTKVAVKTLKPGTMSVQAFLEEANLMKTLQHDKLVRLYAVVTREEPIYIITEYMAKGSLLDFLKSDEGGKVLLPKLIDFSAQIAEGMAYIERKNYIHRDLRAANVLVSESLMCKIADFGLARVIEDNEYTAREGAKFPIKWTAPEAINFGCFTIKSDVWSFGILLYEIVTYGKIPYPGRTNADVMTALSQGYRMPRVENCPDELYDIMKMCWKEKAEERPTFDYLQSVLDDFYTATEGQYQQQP
From the text: as §1

The target of a further data set is T3, Mnk2(h) (Homo sapiens, UniProt Q9HBH9).
T3 construct: gene MKNK2
T3 sequence (Q9HBH9 whole entry): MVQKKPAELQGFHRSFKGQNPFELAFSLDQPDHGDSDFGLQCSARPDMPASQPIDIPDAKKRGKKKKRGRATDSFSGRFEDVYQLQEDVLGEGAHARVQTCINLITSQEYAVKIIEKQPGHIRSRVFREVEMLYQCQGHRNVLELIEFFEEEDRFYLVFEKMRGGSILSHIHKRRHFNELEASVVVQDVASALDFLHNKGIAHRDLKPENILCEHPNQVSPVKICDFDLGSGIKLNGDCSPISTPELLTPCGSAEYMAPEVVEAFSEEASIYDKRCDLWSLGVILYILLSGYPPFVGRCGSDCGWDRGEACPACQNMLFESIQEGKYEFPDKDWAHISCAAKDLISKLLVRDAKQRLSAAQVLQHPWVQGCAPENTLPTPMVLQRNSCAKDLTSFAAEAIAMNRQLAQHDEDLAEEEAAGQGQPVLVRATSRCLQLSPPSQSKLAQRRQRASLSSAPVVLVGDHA
Kind of data set: biochemical. Further details: In vitro kinase panel profiling, per cent remaining kinase activity at 10 uM. The conditions noted are these: atp_concentration=120, read-out: % of control remaining.
From the text: as §1

A further data set deals with T4, PKCα(h) (Homo sapiens, UniProt P17252).
T4 construct: gene PRKCA
Kind of data set: biochemical. Details: In vitro kinase panel profiling, per cent remaining kinase activity at 10 uM. The conditions noted are these: atp_concentration=45, read-out: % of control remaining.
From the text: as §1

Another data set deals with T5, PKCθ(h) (Homo sapiens, UniProt Q04759).
T5 construct: gene PRKCQ
T5 sequence (Q04759 whole entry): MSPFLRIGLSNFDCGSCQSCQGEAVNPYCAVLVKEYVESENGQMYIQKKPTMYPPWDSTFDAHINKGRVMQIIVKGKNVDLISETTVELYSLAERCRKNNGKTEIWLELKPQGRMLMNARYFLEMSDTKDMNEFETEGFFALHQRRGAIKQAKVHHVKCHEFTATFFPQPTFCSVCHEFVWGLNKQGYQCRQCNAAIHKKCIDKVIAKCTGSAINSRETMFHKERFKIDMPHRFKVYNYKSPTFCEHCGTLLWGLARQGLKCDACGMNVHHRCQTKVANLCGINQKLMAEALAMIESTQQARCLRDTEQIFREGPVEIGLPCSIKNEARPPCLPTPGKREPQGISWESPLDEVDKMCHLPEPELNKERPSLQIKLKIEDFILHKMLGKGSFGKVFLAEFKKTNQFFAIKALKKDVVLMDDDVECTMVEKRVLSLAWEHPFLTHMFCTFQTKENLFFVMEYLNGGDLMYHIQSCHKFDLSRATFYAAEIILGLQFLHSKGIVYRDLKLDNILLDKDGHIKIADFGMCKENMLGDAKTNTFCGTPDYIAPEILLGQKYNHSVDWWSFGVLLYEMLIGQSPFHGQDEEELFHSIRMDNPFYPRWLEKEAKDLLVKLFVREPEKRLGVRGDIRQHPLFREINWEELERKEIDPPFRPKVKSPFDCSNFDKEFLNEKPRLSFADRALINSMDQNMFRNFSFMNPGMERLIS
Kind of data set: biochemical. As to conditions: atp_concentration=15, read-out: % of control remaining. Further details: In vitro kinase panel profiling, per cent remaining kinase activity at 10 uM.
From the text: as §1

A further data set has as its target SRPK1(h) (Homo sapiens, UniProt Q96SB4). Kind of data set: biochemical. Further details: In vitro kinase panel profiling, per cent remaining kinase activity at 10 uM. The conditions noted are these: atp_concentration=10, read-out: % of control remaining.
From the text: as §1

Data set [2] can be described thus: In vitro kinetic solubility. The conditions noted are these: In vitro kinetic solubility, ph 7.4.
Data set [3] in a line: Permeability Papp (AB) MDR1/MDCKII. The conditions noted are these: for papp_a_to_b_mean: A to B.
The nature of data set [4]: In vitro mouse hepatocyte stability. Type of data set: in vitro ADME. The text has this:
(§2) Supplement media-1.zip/Hepatocyte_Stability.csv, table | column: clint; t_half

Data set [5] can be described thus: In vitro dog hepatocyte stability. It is filed as in vitro ADME.
From the text: as §2

Another data set has as its target T6, acetylcholinesterase (h) (Homo sapiens, UniProt P22303).
T6 construct: purchased Eurofins Cerep (SafetyScreen44), recognised from the panel format
Kind of data set: In vitro CEREP profiling, acetylcholinesterase (h). Type of data set: biochemical. The conditions noted are these: test compound concentration 10 uM; Enzyme and Cell-based assays. An excerpt: (§3) Supplement media-1.zip/Safety_Panel_Profile.csv, table | column: perc_inhibition

The next data set addresses T7, CCK1 (CCKA) (h) (Homo sapiens, UniProt P32238).
T7 construct: purchased Eurofins Cerep (SafetyScreen44), recognised from the panel format
T7 sequence (P32238 1-428): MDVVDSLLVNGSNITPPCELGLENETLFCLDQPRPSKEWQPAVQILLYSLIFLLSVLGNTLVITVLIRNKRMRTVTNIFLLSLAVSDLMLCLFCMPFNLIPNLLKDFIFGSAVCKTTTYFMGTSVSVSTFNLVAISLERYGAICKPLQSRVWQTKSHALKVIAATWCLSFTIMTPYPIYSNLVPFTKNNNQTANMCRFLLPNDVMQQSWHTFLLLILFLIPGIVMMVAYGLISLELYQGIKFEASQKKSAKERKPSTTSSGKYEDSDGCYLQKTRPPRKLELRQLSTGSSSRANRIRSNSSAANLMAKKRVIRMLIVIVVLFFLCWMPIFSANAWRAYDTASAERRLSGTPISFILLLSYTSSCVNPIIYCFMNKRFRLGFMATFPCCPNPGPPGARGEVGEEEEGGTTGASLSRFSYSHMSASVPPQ
Nature of the data set: In vitro CEREP profiling, CCK1 (CCKA) (h) (agonist radioligand). Type of data set: binding. The conditions noted are these: test compound 10 uM.
From the text: as §3

The mark [6] stands for this setting: In vitro MDR1-MDCKII permeability, mean.
Setting [7] is: In vitro MDR1-MDCKII permeability, recovery A to B, mean.

By microsomal CLint is commonly meant the capacity of the preparation to metabolise the compound, expressed as a volume cleared per time. Low values mean greater metabolic stability, high ones faster metabolism. The solubility is the concentration that dissolves in the medium under given conditions.

Sequence of Fyn(h) (P06241 whole entry): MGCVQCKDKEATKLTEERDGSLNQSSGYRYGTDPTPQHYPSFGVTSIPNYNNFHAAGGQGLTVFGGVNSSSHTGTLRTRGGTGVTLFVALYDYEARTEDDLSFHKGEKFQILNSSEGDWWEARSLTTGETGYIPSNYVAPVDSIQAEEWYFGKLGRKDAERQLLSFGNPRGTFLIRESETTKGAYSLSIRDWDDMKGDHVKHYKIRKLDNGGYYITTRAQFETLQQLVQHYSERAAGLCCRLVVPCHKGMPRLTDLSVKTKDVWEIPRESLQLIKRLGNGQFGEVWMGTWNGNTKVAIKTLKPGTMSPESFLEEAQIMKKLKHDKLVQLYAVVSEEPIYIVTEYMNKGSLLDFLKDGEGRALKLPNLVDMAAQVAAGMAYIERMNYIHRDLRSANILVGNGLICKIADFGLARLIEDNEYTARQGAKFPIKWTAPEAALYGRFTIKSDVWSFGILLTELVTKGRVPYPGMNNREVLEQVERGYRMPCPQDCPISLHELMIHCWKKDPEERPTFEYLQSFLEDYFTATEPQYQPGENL
T2 sequence (P49841 whole entry): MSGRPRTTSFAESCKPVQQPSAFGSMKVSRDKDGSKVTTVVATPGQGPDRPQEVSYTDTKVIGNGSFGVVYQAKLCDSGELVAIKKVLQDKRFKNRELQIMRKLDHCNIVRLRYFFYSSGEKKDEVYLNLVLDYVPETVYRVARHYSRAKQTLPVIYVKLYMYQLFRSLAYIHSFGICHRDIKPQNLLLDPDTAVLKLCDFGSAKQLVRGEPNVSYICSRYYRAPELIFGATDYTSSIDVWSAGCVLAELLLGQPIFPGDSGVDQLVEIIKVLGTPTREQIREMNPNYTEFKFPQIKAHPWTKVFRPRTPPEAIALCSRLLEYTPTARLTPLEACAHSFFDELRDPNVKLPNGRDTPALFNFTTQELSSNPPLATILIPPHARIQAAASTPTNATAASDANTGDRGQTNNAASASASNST
Sequence of SRPK1(h) (Q96SB4 whole entry): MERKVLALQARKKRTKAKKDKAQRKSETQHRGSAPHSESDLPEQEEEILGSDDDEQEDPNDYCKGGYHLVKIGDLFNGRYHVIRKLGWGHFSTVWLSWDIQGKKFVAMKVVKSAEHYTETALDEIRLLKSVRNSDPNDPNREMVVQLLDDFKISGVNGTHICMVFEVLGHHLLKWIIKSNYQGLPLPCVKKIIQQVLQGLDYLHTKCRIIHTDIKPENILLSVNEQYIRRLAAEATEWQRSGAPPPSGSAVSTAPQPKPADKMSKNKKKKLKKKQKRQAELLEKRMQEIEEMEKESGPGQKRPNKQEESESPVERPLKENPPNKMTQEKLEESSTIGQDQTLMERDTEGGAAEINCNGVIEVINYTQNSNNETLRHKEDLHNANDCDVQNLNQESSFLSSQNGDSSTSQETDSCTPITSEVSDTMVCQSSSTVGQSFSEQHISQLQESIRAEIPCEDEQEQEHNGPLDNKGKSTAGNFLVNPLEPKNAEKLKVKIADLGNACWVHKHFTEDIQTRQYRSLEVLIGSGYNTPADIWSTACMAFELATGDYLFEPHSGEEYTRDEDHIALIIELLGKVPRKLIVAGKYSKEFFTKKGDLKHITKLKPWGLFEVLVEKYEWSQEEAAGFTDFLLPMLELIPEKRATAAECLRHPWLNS
T6 sequence (P22303 32-614): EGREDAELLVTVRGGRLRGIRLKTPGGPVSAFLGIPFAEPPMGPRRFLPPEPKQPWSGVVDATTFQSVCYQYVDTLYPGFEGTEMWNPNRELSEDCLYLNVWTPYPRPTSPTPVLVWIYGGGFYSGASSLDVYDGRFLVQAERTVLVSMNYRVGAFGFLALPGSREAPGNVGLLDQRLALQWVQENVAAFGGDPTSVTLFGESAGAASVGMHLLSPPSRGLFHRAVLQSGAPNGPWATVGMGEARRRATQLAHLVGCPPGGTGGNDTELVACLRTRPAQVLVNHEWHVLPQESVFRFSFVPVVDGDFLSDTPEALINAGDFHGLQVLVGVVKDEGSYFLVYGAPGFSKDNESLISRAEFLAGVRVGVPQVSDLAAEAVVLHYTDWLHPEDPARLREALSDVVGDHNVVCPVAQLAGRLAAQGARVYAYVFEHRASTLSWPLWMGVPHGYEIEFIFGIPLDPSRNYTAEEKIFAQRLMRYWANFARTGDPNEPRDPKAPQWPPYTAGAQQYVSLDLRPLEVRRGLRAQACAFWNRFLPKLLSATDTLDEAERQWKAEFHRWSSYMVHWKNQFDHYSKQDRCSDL

As to `CC(C)[C@@H](Nc1ncnc2[nH]c(-c3cnn(C)c3C#N)cc12)c1ccc2c(n1)OCCO2` [ASAP-0008418], in [1], the clint was 59.0 µL/min/mg and 56.0 µL/min/mg. Moreover, the perc_remaining in data set [1] is 34.0% and 36.0%. Moreover, in [1], the t_half is 28.1 min and 29.7 min. Also, the perc_remaining_no_cofactor in [1] is 98.0% and 104.0%. Moreover, the remaining activity at 10 µM at DRAK1(h) (batch_name=ASAP-0008418-001) is 101%; at Fyn(h) (batch_name=ASAP-0008418-001) it was 56%; at GSK3β(h) (batch_name=ASAP-0008418-001) it was 85%; on Lyn(h) (batch_name=ASAP-0008418-001), 61%; at Mnk2(h) (batch_name=ASAP-0008418-001), 77%; on PKCα(h) (batch_name=ASAP-0008418-001), 90%. Besides, the remaining activity at 10 µM on PKCθ(h) (batch_name=ASAP-0008418-001) came out at 93%; on SRPK1(h) (batch_name=ASAP-0008418-001) it was 92%. Moreover, the solubility_mean in data set [2] is 89 µM and 60 µM. Moreover, the papp_a_to_b_mean in [3] (setting [6]) was 12.8 ×10⁻⁶ cm/s and 21.3 ×10⁻⁶ cm/s. In addition, the perc_recovery_a_to_b_mean in data set [3] (setting [7]) was 82.0% and 88.6%.

Turning to `COc1ccc([C@@H](Cc2nnn[nH]2)NC(=O)c2ncnc3[nH]ccc23)cc1` [ASAP-0008340], in data set [1], the clint worked out at 5.0 µL/min/mg. Besides, the perc_remaining in [1] turned out to be 86.0%. The molecule also gave a t_half in data set [1] of 313.8 min. For the same molecule, in data set [1], the perc_remaining_no_cofactor is 110.0%. Further, the remaining activity at 10 µM at DRAK1(h) (batch_name=ASAP-0008340-001) was 111%; at Fyn(h) (batch_name=ASAP-0008340-001), 105%; on GSK3β(h) (batch_name=ASAP-0008340-001), 105%; on Lyn(h) (batch_name=ASAP-0008340-001), 111%; on Mnk2(h) (batch_name=ASAP-0008340-001), 84%; on PKCα(h) (batch_name=ASAP-0008340-001) it was 95%. In addition, the remaining activity at 10 µM at PKCθ(h) (batch_name=ASAP-0008340-001) worked out at 90%; at SRPK1(h) (batch_name=ASAP-0008340-001) it was 102%. This molecule gave a solubility_mean in [2] of 395 µM (≈ 144 µg/mL). This molecule returned a papp_a_to_b_mean in data set [3] (setting [6]) of 1.39 ×10⁻⁶ cm/s. For the same molecule, the perc_recovery_a_to_b_mean in data set [3] (setting [7]) is 89.1%.

With `CC(C)C(Nc1ncnc2[nH]ccc12)c1ccc2c(c1)S(=O)(=O)CCC2` (centres unmarked) [ASAP-0008327], in data set [1], the perc_remaining was 53.0%. Also, the t_half in [1] came out at 44.7 min. Besides, the perc_remaining_no_cofactor in data set [1] turned out to be 99.0%. The molecule also showed a microsomal CLint in [1] (human, liver microsomes) of 37 µL/min/mg. For the same molecule, the remaining activity at 10 µM at DRAK1(h) (batch_name=ASAP-0008327-001) stood at 96%; at Fyn(h) (batch_name=ASAP-0008327-001), 127%; on GSK3β(h) (batch_name=ASAP-0008327-001) it was 107%; on Lyn(h) (batch_name=ASAP-0008327-001), 112%; on Mnk2(h) (batch_name=ASAP-0008327-001) it was 89%; at PKCα(h) (batch_name=ASAP-0008327-001), 104%. Besides, the remaining activity at 10 µM on PKCθ(h) (batch_name=ASAP-0008327-001) worked out at 101%; on SRPK1(h) (batch_name=ASAP-0008327-001), 105%. This molecule showed a solubility in [2] (pH 7.4, solubility_mean) of 385 µM (≈ 143 µg/mL). Moreover, the perc_recovery_a_to_b_mean in data set [3] (setting [7]) was 87.0%.

For the molecule `COc1ccc([C@H](Cc2nnn[nH]2)NC(=O)c2ncnc3[nH]ccc23)cc1` [ASAP-0015381], the clint in data set [1] is 2.0 µL/min/mg; in [4], 4.6 uL/min/1E6 cells; in data set [5], < 3.0 uL/min/1E6 cells. Besides, in [1], the perc_remaining was determined as 105.597%. Also, the t_half in [1] is listed as 1085.642 min; in data set [4] it was 151.0 min; in data set [5] it was > 231.0 min. Also, the perc_remaining_no_cofactor in data set [1] is on record as 84.68%. At acetylcholinesterase (h), the “perc_inhibition: % inhibition of control enzyme activity, acetylcholinesterase (h)” value was 11%. For the same molecule, on CCK1 (CCKA) (h), the “perc_inhibition (% inhibition of the binding of a ligand specific for each target)” value is reported as -5%. For the same molecule, the remaining activity at 10 µM was determined as 102% at Fyn(h) (batch_name=ASAP-0015381-001); 90% on GSK3β(h) (batch_name=ASAP-0015381-001); 108% on Lyn(h) (batch_name=ASAP-0015381-001); 115% on Mnk2(h) (batch_name=ASAP-0015381-001); 93% at PKCα(h) (batch_name=ASAP-0015381-001); 91% at PKCθ(h) (batch_name=ASAP-0015381-001). The remaining activity at 10 µM at SRPK1(h) (batch_name=ASAP-0015381-001) came to 103%. The same molecule showed a solubility_mean in data set [2] of 367 µM (≈ 134 µg/mL). The papp_b_to_a_mean in data set [3] (In vitro MDR1-MDCKII permeability, B to A, no inhibitor) was 0.021 ×10⁻⁶ cm/s. The same molecule showed an efflux_ratio in data set [3] (In vitro MDR1-MDCKII permeability, no inhibitor) of 0.67. For the same molecule, in [3] (In vitro MDR1-MDCKII permeability, recovery A to B, no inhibitor), the perc_recovery_a_to_b_mean was 87.0% and 68.4%. In addition, the perc_recovery_b_to_a_mean in [3] (In vitro MDR1-MDCKII permeability, recovery B to A, no inhibitor) worked out at 84.4%. Moreover, in data set [3] (MDR1-MDCKII, recovery A to B, with inhibitor Cyclosporin A), the perc_recovery_a_to_b_inhibitor_mean is reported as 83.1%. In addition, the perc_recovery_b_to_a_inhibitor_mean in data set [3] (MDR1-MDCKII, recovery B to A, with inhibitor Cyclosporin A) was 85.5%.
